Reference: paper PMC5473904, “Epigenetic and antitumor effects of platinum(IV)-octanoato conjugates” (Scientific Reports, 2017)

How the values were obtained:
[1] = test system: HSF human primary skin fibroblasts; assay: MTT cytotoxicity, 72 h; format: cell-based; conditions: Homo sapiens, Skin fibroblast, octanoic acid
Experimental: (§1) Cytotoxic activity of the compounds tested in the present work was screened on the panel of malignant and nonmalignant cell lines using the colorimetric MTT assay and 72 h of drug incubation period.
(§2) Cell death was evaluated using a system based on the tetrazolium compound MTT [3-(4,5-dimethyl-2-thiazolyl)-2,5-diphenyl-2H-tetrazolium bromide]. The cells were seeded in 96-well tissue culture plates at a density of 10^4 A2780cisR, LNCaP, HSF cells/well, 3 × 10^3 CHO-K1 or 4 × 10^3 MCF7, HCT-116 and MRC5 pd30 cells/well in 100 μL of medium. After overnight incubation (16 h), the cells were treated with the compounds in a final volume of 200 μL/well. After additional 72 h, 10 μL of a freshly diluted MTT solution (2.5 mg mL^−1) was added to each well, and the plate was incubated at 37 °C in a humidified 5% CO2 atmosphere for 4 h. At the end of the incubation period, the medium was removed, and the formazan product was dissolved in 100 μL of DMSO. The cell viability was evaluated by measurement of the absorbance at 570 nm, using an Absorbance Reader SUNRISE TECAN SCHOELLER. IC50 values were calculated from curves constructed by plotting cell survival (%) versus drug concentration (μM). All experiments were made in triplicate. The reading values were converted to the percentage of control (% cell survival). Cytotoxic effects were expressed as IC50.

[2] = test system: HCT-116 human colorectal carcinoma cells; assay: MTT cytotoxicity, 72 h; format: cell-based; conditions: Homo sapiens, HCT-116; MTT, 72 h, octanoic acid
Experimental: as §1, §2

[3] = test system: MRC-5 (PD30) human fetal lung fibroblasts; assay: MTT cytotoxicity, 72 h; format: cell-based; conditions: Homo sapiens, MRC5, octanoic acid
Experimental: as §1, §2

[4] = test system: LNCaP human prostate adenocarcinoma cells; assay: MTT cytotoxicity, 72 h; format: cell-based; conditions: Homo sapiens, LNCaP, octanoic acid
Experimental: as §1, §2

[5] = test system: MCF-7 human breast cancer cells; assay: MTT cytotoxicity, 72 h; format: cell-based; conditions: octanoic acid
Experimental: as §1, §2

[6] = test system: A2780cisR human ovarian carcinoma cells; assay: MTT cytotoxicity, 72 h; format: cell-based
Experimental: as §1, §2

[7] = test system: CHO-K1 Chinese hamster ovary cells; assay: MTT cytotoxicity, 72 h; format: cell-based; conditions: Cricetulus griseus, CHO-K1, octanoic acid
Experimental: as §1, §2

[8] = test system: DNMT enzymes in HCT-116 cells; assay: DNMT activity in nuclear extracts of treated cells; format: cell-based, human; design: unit of the concentration uncertain; conditions: HCT-116, 1 (unit uncertain), 24 h
Experimental: In these experiments, the total activity of DNMT enzymes was determined in nuclear extracts prepared from HCT-116 cells which were treated with the platinum compounds, free OA or decitabine for 24 h (Fig. 4B).
Human colon carcinoma cells (HCT-116) were seeded in 100 mm culture dishes at the density 1.5 × 10^6 cells/dish. Cells were harvested after 24 h of incubation with the compounds tested in the present work (1 µM). Nuclear extracts from the pellets were separated using EpiQuik Nuclear extraction kit I (Epigentek, NY) according to manufacturer’s instructions. Quantification of nuclear proteins was analyzed with the standard Bradford assay. The activity of DNMT enzymes was analyzed using the EpiQuik DNMT activity/inhibition assay Ultra kit (Epigentek, NY), according to the manufacturer´s protocol. Briefly, 10 µg of total nuclear protein was analyzed for its DNMT activity. The reaction time with a universal DNMT substrate stably coated onto microplate wells was 120 min at 37 °C. The final signal at the end of the ELISA reaction was detected at 450 nm (reference 620 nm). DNMT activity was normalized to controls and expressed in the percent or absolute values as OD h^−1 mg^−1, calculated as described in the manufacturer’s manual.

[9] = test system: DNA methylation in HCT-116 cells; assay: DNA methylation analysis (Imprint methylated DNA quantification kit); format: cell-based, human; conditions: HCT-116, free OA at sufficiently high (milimolar) concentration
Experimental: Human colon adenocarcinoma cells HCT-116 were chosen as the model cellular system suitable for DNA methylation analysis because: (i) this human colorectal cancer cell line has been used as a prototypic model for analyses of the genetic basis of cancer, and the role of epigenetic changes in tumorigenesis; (ii) they have a propensity to both global DNA hypomethylation and to silence genes through promoter focal hypermethylation, [21]. HCT-116 cells were treated with the compounds at the concentrations indicated in Fig. 4A for 24 or 72 h and DNA was isolated for the complete methylation analysis as described in the experimental section. Decitabine (5-aza-2′-deoxycytidine), a hypomethylating agent which hypomethylates DNA by inhibiting DNMT, was used in these experiments as a […]. The IC50 values found for this agent in HCT-116 cells (the drug-treatment period was 72 h) was (7.5 ± 0.3) µM (Table 1).
Figure 4 Analysis of DNA methylation. (A) DNA was isolated from HCT-116 cells after the exposure to the agents at the concentrations indicated in the graph for 24 or 72 h. The levels of DNA methylation in the control was taken as 100%. The bars represent mean values from three independent experiments each performed in octuplicate. The error bars are the SDs. (B) DNMT activity in colon carcinoma cells HCT-116 treated for 24 h with the compounds tested in the present work. The DNMT activity in the control, untreated cells was taken as 100%. Error bars are the SDs and the stars at the top of bars denote a significant difference from the control with (*p < 0.05; **p < […]), calculated using […] student’s t-test. The bars represent mean values from three independent experiments, each performed in quadruplicate.
Human colon carcinoma cells (HCT-116) were seeded at the density 1.5 × 10^6 cells/dish. […] The DNA content in each sample was determined by UV spectrophotometry. DNA (200 ng) from the samples was loaded to the Imprint methylated DNA quantification kit (Sigma-Aldrich, USA). The level of methylated DNA was proportional to the absorbance measured at 450 nm.

PNT1a = assay: MTT cytotoxicity, 72 h; format: cell-based; conditions: Homo sapiens, PNT1A, octanoic acid
[10] = test system: A2780 human ovarian carcinoma cells; assay: MTT cytotoxicity, 72 h; format: cell-based; conditions: Homo sapiens, A2780; MTT, 72 h, octanoic acid
[11] = test system: HDAC enzymes in HCT-116 cells; assay: HDAC fluorimetric cellular activity assay; format: cell-based, human; conditions: 1 mM (1000-fold higher concentration)
Experimental: These epigenetic processes consist in downregulation of HDACs and yet other biochemical processes triggered by VPA released in cells by the reduction of the Pt(IV) prodrug. Moreover, it has also been shown[15] that non-branched MCFAs may act as HDAC inhibitors. […] HDAC activity was analyzed in HCT-116 cells and confirmed by an independent set of experiments on A2780 cells (data not shown) by using a commercial HDAC fluorimetric cellular activity kit as described in the section Materials and methods.
Figure 3 Activity of HDAC enzymes in HCT-116 cells treated with the compounds tested in the present work; their concentration was 1 µM except the concentration of free OA, which was 1 mM. […] The data represent a mean from three independent experiments, each performed in quadruplicate. The error bars are the SDs.
The activity of HDAC enzymes was analyzed in HCT-116 cells treated with compounds tested in the present work (1 µM). […] The activity of HDAC was analyzed using the HDAC fluorimetric cellular activity assay kit (Enzo Life Sciences; Farmingdale, NY) in the whole cells according to manufacturer’s instructions. […] The plates were scanned on a fluorescence reader Infinite 200 (TECAN) (360 nm excitation, 460 nm emission).

In the case of `CCCCCCCC(=O)O` [OA, octanoic acid, reference compound], the IC50 [1] is reported as 9.74 ± 0.03 mM, the IC50 [2] is reported as 3.84 ± 0.39 mM and the IC50 [3] is reported as 7.67 ± 0.61 mM. It also gave an IC50 [4] of 0.71 ± 0.12 mM, an IC50 ([5]; Homo sapiens, MCF7, 72 h) of 16 mM and an IC50 [5] of 16.2 ± 0.56 mM. The IC50 ([6]; Homo sapiens, A2780cisR, MTT, 72 h, octanoic acid) was 0.76 ± 0.02 mM, the “RF, resistance factor” value ([6]; IC50 (resistant, A2780cisR)/IC50 (sensitive, A2780)) was 0.5 and the IC50 [7] was 5.9 ± 0.7 mM. The “Activity of DNMT enzymes” value [8] was “enhanced activity of DNMT enzymes”, the “Change of DNA methylation” value [9] was “capable of inducing DNA hypermethylation” and the IC50 (PNT1a) was 2.07 ± 0.03 mM. The IC50 [10] was 1.46 ± 0.1 mM and the “Efficiency to inhibit HDAC activity” value [11] was “moderate inhibitory effect”.
